Results on eight compounds are retold here after ChEMBL document CHEMBL1201862, “PubChem BioAssay data set” (2004).

Common to all, as to experiment: NCI-60 cell line screen, 48 h
In test [1] the test system is HOP-92.
The test system of test [2] is HCT-116.
The test system of test [3] is OVCAR-4.
Test [4] has as its system RPMI-8226.
The subject of test [5] is SW-620.
The test system of test [6] is HOP-62.
Test [7] has as its system SK-MEL-2.
The subject of test [8] is A498.
For test [9], the system named is UO-31.
Test [10] relates to SF-268.
Test [11] relates to SR.
The subject of test [12] is UACC-62.
Test [13] deals with HL-60.
The subject of test [14] is DLD-1.
Test [15] has as its system SNB-75.
Test [16] relates to SF-295.
Test [17] has as its system ACHN.
Test [18] relates to CAKI-1.
Test [19] relates to NCI-H522.
Test [20] concerns NCI/ADR-RES.

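Step 1: Grow cells in 96-well plates. Step 2: Expose to compound for 48 hours at 5 concentrations. Step 3: Interpolate endpoints linearly; if unreached, use highest concentration. GI50 = concentration required for 50% inhibition of growth.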 Activity calls are given as the source filed them. No stated cut-off is given here; in the data, active = GI50 up to about 1.1 µM and inactive = higher. Bounds are passed on as bounds.

Turning to `O=C(Nc1cccc2ccccc12)Oc1ccccc1C1CCCCC1`, the GI50 in [1] was 15.8 µM (inactive); in test [2], 17.7 µM (inactive); in test [3], 16.3 µM (inactive); in test [4], 30.3 µM (inactive); in test [5] it was 20.6 µM (inactive); in test [6], 19 µM (inactive). Moreover, the GI50 is 18.2 µM (inactive) in [7]; 17.6 µM (inactive) in [8]; 16.1 µM (inactive) in test [9]; 24.4 µM (inactive) in [10]; 17.5 µM (inactive) in test [11]; 15.9 µM (inactive) in test [12]. In addition, the GI50 is 27.2 µM (inactive) in test [13], 15.2 µM (inactive) in test [14], 13.9 µM (inactive) in test [15] and 16.3 µM (inactive) in test [16].
In the case of `C=C(CN(C)C)C(=O)c1ccc(OC2OC(COC(C)=O)C(OC(C)=O)C(OC(C)=O)C2OC(C)=O)cc1` (configuration not stated), the GI50 is 0.581 µM (active) in test [1]; 1.62 µM (inactive) in [17]; 2.25 µM (inactive) in test [2]; 3.75 µM (inactive) in test [3]; 2.88 µM (inactive) in test [4]; 0.678 µM (active) in test [5]. For the same compound, the GI50 is 15.3 µM (inactive) in test [6]; 1.59 µM (inactive) in test [18]; 10.3 µM (inactive) in test [7]; 14.1 µM (inactive) in [8]; 2.34 µM (inactive) in [9]; 19.7 µM (inactive) in [10]. The GI50 in test [11] is 0.975 µM (active); in test [19] it was 0.447 µM (active); in test [12], 4.7 µM (inactive); in test [13], 0.456 µM (active); in [14] it was 0.912 µM (active); in test [15] it was 11.4 µM (inactive). In [16], the GI50 is 21.3 µM (inactive).
Take `CO[C@H]1ON=C(c2c(C)cc(C)cc2C)[C@@H]1C1(c2ccccc2)ON=C(c2c(C)cc(C)cc2C)O1` (some centres not stated): the GI50 is > 100 µM (inactive) in [1]; > 100 µM (inactive) in [17]; > 100 µM (inactive) in test [2]; 37.8 µM (inactive) in [4]; > 100 µM (inactive) in test [5]; > 100 µM (inactive) in test [7]. The GI50 in test [9] is > 100 µM (inactive); in test [10], > 100 µM (inactive); in [11], > 100 µM (inactive); in [19] it was > 100 µM (inactive); in [12], > 100 µM (inactive); in test [13] it was 46.3 µM (inactive). The GI50 in test [14] and in test [16] was > 100 µM (inactive) each time.
For `CC1OC(CO)(n2cnc3c(N)ncnc32)C(O)C1O` (configuration not stated), the GI50 in test [20], in [1], in test [2], in [3], in test [4] and in test [5] was > 100 µM (inactive) in each case. Moreover, the GI50 in [6], in test [18], in test [7], in [8], in test [9] and in test [10] was > 100 µM (inactive) each time. Also, the GI50 in test [19], in test [12], in test [13], in [14], in [15] and in [16] was > 100 µM (inactive) throughout.
For the compound `Cn1c(=O)c2nc(N3CCCCC3)cnc2n(C)c1=O`, the GI50 in test [1], in test [17], in test [2], in test [3], in test [4] and in test [5] was > 100 µM (inactive) throughout. Further, the GI50 in [6], in test [18], in test [8], in test [9], in test [10] and in test [11] was > 100 µM (inactive) throughout. Moreover, the GI50 in test [19], in test [12], in test [13], in test [14], in test [15] and in test [16] was > 100 µM (inactive) throughout.
On to `C#CC[N+](CCO)(CCO)CCCCCCCCCCCCCCCCCC`, for which the GI50 is 20.2 µM (inactive) in test [20]; 2 µM (inactive) in test [1]; 8.41 µM (inactive) in test [2]; 10.5 µM (inactive) in [3]; 3.27 µM (inactive) in test [4]; 15.7 µM (inactive) in [5]. In addition, the GI50 in [6] was 11.4 µM (inactive); in test [18], 5.87 µM (inactive); in [7] it was 16.4 µM (inactive); in test [8], 17.2 µM (inactive); in [9], 15.1 µM (inactive); in test [10], 8.69 µM (inactive). Besides, the GI50 in test [19] was 6.85 µM (inactive); in [12], 11 µM (inactive); in test [13], 1.55 µM (inactive); in test [14], 9.25 µM (inactive); in test [15] it was 4.16 µM (inactive); in test [16] it was 7.76 µM (inactive).
With `C=C(/C=C/C=C(\C)CCC=C(C)C)[C@@H]1CC[C@]2([C@H](CCCO)/C(=C(/C)C=O)CC[C@]2(C)O)[C@@H]1O`, the GI50 in test [1] was < 0.01 µM (active); in test [17] it was > 100 µM (inactive); in test [5] it was 16.3 µM (inactive); in test [18] it was 28 µM (inactive); in test [7], 20.2 µM (inactive); in [9], 19.5 µM (inactive). In addition, the GI50 is 19.2 µM (inactive) in [10]; 18.8 µM (inactive) in test [11]; 16.7 µM (inactive) in test [19]; 11.5 µM (inactive) in test [13]; 18.4 µM (inactive) in [14]; 91.6 µM (inactive) in [15]. In test [16], the GI50 was 15.6 µM (inactive).
As for `CC(C)(C)OC(=O)NC1CCC(C(C)(C)C)CC1` (configuration not stated), the GI50 was 99.1 µM (inactive) in [20]; 43.1 µM (inactive) in test [2]; > 74.3 µM (inactive) in test [3]; 27.3 µM (inactive) in test [4]; > 64.3 µM (inactive) in [5]; > 91 µM (inactive) in [6]. The GI50 in test [7] is 23.3 µM (inactive); in test [8], > 100 µM (inactive); in test [9], 59.2 µM (inactive); in test [10], > 100 µM (inactive); in [19] it was 85.1 µM (inactive); in test [12], 37.4 µM (inactive). For the same compound, the GI50 was 15.2 µM (inactive) in test [13], > 100 µM (inactive) in test [14], 40.7 µM (inactive) in [15] and 26.5 µM (inactive) in test [16].
